Here are results for 11 compounds from US8309685B2 (Celgene Avilomics Research, Inc., priority 2007, dated 2012).

The target of assay [1] is T1, wild type HCV NS3/4A 1b protease enzyme (Hepatitis C virus genotype 1b, UniProt P26663).
T1 construct: 10× stocks of NS3/4A protease enzyme from Bioenza (Mountain View, Calif.); purchased Bioenza (Mountain View, Calif.)
The assay can be described thus: biochemical. It is filed as biochemical. As to conditions: read-out: Inhibition, WT; WT enzyme, FRET assay. Here is the method:
(§1) HCV Protease FRET Assay for Wild Type and Mutated NS3/4A 1b Enzymes (IC50)
(§2) Protease reactions were started with the addition of 45 μL of the FRET substrate and monitored for 120 minutes at λex487/λem514 through Quad^4 monochromoters in a Synergy^4 plate reader from BioTek (Winooski, Vt.). At the conclusion of each assay, progress curves from each well were examined for linear reaction kinetics and fit statistics (R^2, absolute sum of squares).
(§3) The compound numbers correspond to the compound numbers in Table 3.

Assay [2] concerns the target T2, D168A mutant of the HCV NS3/4A 1b protease enzyme (Hepatitis C virus genotype 1b, UniProt P26663, D1194A).
T2 construct: 10× stocks of NS3/4A protease enzyme from Bioenza (Mountain View, Calif.); purchased Bioenza (Mountain View, Calif.)
Briefly: HCV Protease FRET Assay (IC50), D168A mutant. As to conditions: read-out: Inhibition, HCV D168A; D168A enzyme, FRET assay. In kind it is biochemical. As to the method: as §1, §2, §3

In assay [3] the target is T3, A156T mutant of the HCV NS3/4A 1b protease enzyme (Hepatitis C virus genotype 1b, UniProt P26663, A1182T).
T3 construct: 10× stocks of NS3/4A protease enzyme from Bioenza (Mountain View, Calif.); purchased Bioenza (Mountain View, Calif.)
The assay can be described thus: HCV Protease FRET Assay (IC50_APP), A156T mutant. In kind it is biochemical. As to conditions: apparent IC50, A156T mutant; read-out: IC50_APP, HCV A156T. Here is the method: (§4) HCV Protease FRET Assay for WT and Mutated NS3/4A 1b Enzymes (IC50—APP).
(§5) The following protocol was used to generate “apparent” IC50 (IC50—APP) values as depicted in Table 6, below. […] 5 μL of each enzyme were added to Corning (#3575) 384-well, black, microtiter plates (Corning, N.Y.) after spotting a 0.5 μL volume of 50% DMSO and serially diluted compounds prepared in 50% DMSO. Protease reactions were immediately started after enzyme addition with the addition of 45 μL of the FRET substrate and monitored for 60-90 minutes at λex485/λem520 in a Synergy^4 plate reader from BioTek (Winooski, Vt.). At the conclusion of each assay, progress curves from each well were examined for linear reaction kinetics and fit statistics (R^2, 95% confidence intervals, absolute sum of squares).
(§6) The compound numbers correspond to the compound numbers in Table 3. […] ;

The test system of assay [4] is HCV RNA replicon in cell line ET (luc-ubi-neo/ET), human Huh7 hepatoma. Briefly: Method A: HCV RNA replicon antiviral assay (luciferase, ET cell line). It is filed as cell-based, Hepatitis C virus. As to conditions: Hepatitis C virus, Huh-7, assay described in Example 22; for IC50: read-out: Replicon (IC50). As to the method:
The compounds were assayed to evaluate the antiviral activity and cytotoxicity of compounds in vitro using HCV RNA replicons. This assay used the cell line ET (luc-ubi-neo/ET), which is a human Huh7 hepatoma cell line that contains an HCV RNA replicon with a stable luciferase (Luc) reporter and three cell culture-adaptive mutations. […]
The ET cell line was grown in Dulbecco's modified essential media (DMEM), 10% fetal bovine serum (FBS), 1% penicillin-streptomycin (pen-strep), 1% glutamine, 250 μg/ml G418 in a 5% CO2 incubator at 37° C. All cell culture reagents were obtained from Mediatech (Manassas, Va.). Cells were trypsinized (1% trypsin:EDTA) and plated out at 5×10^3 cells/well in white 96-well assay plates (Costar) dedicated to cell number (cytotoxicity) or antiviral activity assessments. Drugs were added at six 3-fold concentrations each and the assay was run in DMEM, 5% FBS, 1% pen-strep, 1% glutamine. Human interferon alpha-2b (PBL Biolabs, New Brunswick, N.J.) was included in each run as a positive control compound. Cells were processed 72 hr post drug addition when the cells are still subconfluent. Antiviral activity was measured by analyzing replicon-derived luciferase activity using the Steady-Glo Luciferase Assay System (Promega, Madison, Wis.) according to manufacturer's instruction. The number of cells in each well was determined by CytoTox-1 reagent (Promega). Compound profile was derived by calculating applicable EC50 (effective concentration inhibiting virus replication by 50%), EC90 (effective concentration inhibiting virus replication by 90%), IC50 (concentration decreasing cell viability by 50%) and SI50 (selective index: […]) values.
A general note: Replicon systems follow genome replication, usually without infectious particles.

For assay [5], the target named is T2, D168A mutant of the HCV NS3/4A 1b protease enzyme. The assay can be described thus: HCV Protease FRET Assay (IC50_APP), D168A mutant. In kind it is biochemical. The note with it: apparent IC50, D168A mutant; read-out: IC50_APP, HCV D168A. Here is the method:
as §4, §5, §6

Assay [6] concerns the target T1, wild type HCV NS3/4A 1b protease enzyme. Briefly: HCV Protease FRET Assay (IC50_APP), wild type. It is filed as biochemical. As to the method: as §4, §5, §6
Where [7] appears, read: read-out: IC50_APP, WT, apparent IC50, wild type NS3/4A 1b.

With `C=C[C@@H]1C[C@]1(NC(=O)[C@@H]1C[C@@H](Oc2cc(-c3ccccc3)nc3cc(OC)ccc23)CN1C(=O)CNC(=O)[C@@H](Cl)c1ccccc1)C(=O)NS(=O)(=O)c1ccccc1` (stereo in doubt) [Compound I-45, (2S,4R)-1-(2-((S,R)-2-chloro-2-phenylacetamido)acetyl)-4-(7-methoxy-2-phenylquinolin-4-yloxy)-N-((1R,2S)-1-(phenylsulfonylcarbamoyl)-2-vinylcyclopropyl)pyrrolidine-2-carboxamide], the IC50 lay in the range of 100 to 1000 nM in assay [1] and 1000 to 10000 nM in assay [2].

`C=C[C@@H]1C[C@]1(NC(=O)[C@@H]1C[C@@H](Oc2cc(-c3ccccc3)nc3cc(OC)ccc23)CN1C(=O)[C@H](CCNC(=O)C(C)Cl)NC(=O)OC(C)(C)C)C(=O)NS(=O)(=O)c1ccccc1` (stereo partly drawn) [Compound I-1, (2S)-2-[[(1,1-dimethylethoxy)carbonyl]amino]-4-(R,S-chloropropionyl)amino-butanoyl-(4R)-4-[(7-methoxy-2-phenyl-4-quinolinyl)oxy]-L-prolyl-1-amino-2-ethenyl-N-(phenylsulfonyl)-(1R,2S)-cyclopropanecarboxamide]: the IC50 in assay [1] was less than 10 nM; in assay [2], 1000 to 10000 nM.

Take `C=C[C@@H]1C[C@]1(NC(=O)[C@@H]1C[C@@H](Oc2cc(-c3ccccc3)nc3cc(OC)ccc23)CN1C(=O)[C@H](CC1CO1)NC(=O)OC(C)(C)C)C(=O)NS(=O)(=O)c1ccccc1` (stereo partly drawn) [Compound I-6, (2S)-2-[[(1,1-dimethylethoxy)carbonyl]amino]-3-oxiranepropanoyl-(4R)-4-[(7-methoxy-2-phenyl-4-quinolinyl)oxy]-L-prolyl-1-amino-2-ethenyl-N-(phenylsulfonyl)-(1R,2S)-cyclopropanecarboxamide]: the IC50 in assay [1] is less than 10 nM; in assay [2], 100 to 1000 nM.

On to `C=C[C@@H]1C[C@]1(NC(=O)[C@@H]1C[C@@H](Oc2cc(-c3ccccc3)nc3cc(OC)ccc23)CN1C(=O)[C@H](CNC(=O)C1(C#N)CC1)NC(=O)OC(C)(C)C)C(=O)NS(=O)(=O)c1ccccc1` [Compound I-11, N-[(1,1-dimethylethoxy)carbonyl]-3-[(1-cyano-cyclopropylcarboxyl)amino]-L-alanyl-(4R)-4-[(7-methoxy-2-phenyl-4-quinolinyl)oxy]-L-prolyl-1-amino-2-ethenyl-N-(phenylsulfonyl)-(1R,2S)-cyclopropanecarboxamide], for which the IC50 in assay [1] is less than 10 nM; in assay [2] it was 100 to 1000 nM.

With `C=C[C@@H]1C[C@]1(NC(=O)[C@@H]1C[C@@H](Oc2cc(-c3ccccc3)nc3cc(OC)ccc23)CN1C(=O)[C@H](CNC(=O)[C@@H](C)Cl)NC(=O)OC(C)(C)C)C(=O)NS(=O)(=O)c1ccccc1` [Compound I-13, N-[(1,1-dimethylethoxy)carbonyl]-3-[R-(chloropropionyl)amino]-L-alanyl-(4R)-4-[(7-methoxy-2-phenyl-4-quinolinyl)oxy]-L-prolyl-1-amino-2-ethenyl-N-(phenylsulfonyl)-(1R,2S)-cyclopropanecarboxamide], the IC50 in assay [1] is less than 10 nM; in assay [2], 100 to 1000 nM.

Consider `C=C[C@@H]1C[C@]1(NC(=O)[C@@H]1C[C@@H](Oc2cc(-c3ccccc3)nc3cc(OC)ccc23)CN1C(=O)[C@H](CNC(=O)[C@H](C)Cl)NC(=O)OC(C)(C)C)C(=O)NS(=O)(=O)c1ccccc1` [Compound I-21, tert-butyl(S)-3-((S)-2-chloropropanamido)-1-((2S,4R)-4-(7-methoxy-2-phenylquinolin-4-yloxy)-2-((1R,2S)-1-(phenylsulfonylcarbamoyl)-2-vinylcyclopropylcarbamoyl)pyrrolidin-1-yl)-1-oxopropan-2-ylcarbamate], for which the IC50 in assay [1] was less than 10 nM; in assay [2], 100 to 1000 nM.

On to `C=C[C@@H]1C[C@]1(NC(=O)[C@@H]1C[C@@H](Oc2cc(-c3ccccc3)nc3cc(OC)ccc23)CN1C(=O)C1(NC(=O)OC(C)(C)C)CCNCC1)C(=O)NS(=O)(=O)c1ccccc1` [Compound I-24, tert-butyl-4-((2S,4R)-4-(7-methoxy-2-phenylquinolin-4-yloxy)-2-((1R,2S)-1-(phenylsulfonylcarbamoyl)-2-vinylcyclopropylcarbamoyl)pyrrolidine-1-carbonyl)piperidin-4-ylcarbamate], for which the IC50 in assay [1] lay in the range of 100 to 1000 nM; in assay [2], 1000 to 10000 nM.

As to `C=CC(=O)NC[C@H](NC(=O)CCCCCNC(=O)CCCC[C@@H]1SC[C@@H]2NC(=O)N[C@@H]21)C(=O)N1C[C@H](Oc2cc(-c3ccccc3)nc3cc(OC)ccc23)C[C@H]1C(=O)N[C@]1(C(=O)NS(=O)(=O)c2ccccc2)C[C@H]1C=C` [Compound I-31, (2S,4R)-1-((S)-3-acrylamido-2-(6-(5-((3aS,4S,6aR)-2-oxohexahydro-1H-thieno[3,4-d]imidazol-4-yl)pentanamido)hexanamido)propanoyl)-4-(7-methoxy-2-phenylquinolin-4-yloxy)-N-((1R,2S)-1-(phenylsulfonylcarbamoyl)-2-vinylcyclopropyl)pyrrolidine-2-carboxamide], the IC50 in assay [1] was less than 10 nM; in assay [2], 10 to 100 nM.

One may read the IC90 as the concentration at which the effect reaches the 90% level. A higher IC90 goes with a need for much substance. For the compound `C=CC(=O)N(C)CC[C@H](NC(=O)OC1CCCC1)C(=O)N1C[C@H](Oc2cc(-c3ccccc3)nc3cc(OC)ccc23)C[C@H]1C(=O)N[C@]1(C(=O)NS(=O)(=O)C2CC2)C[C@H]1C=C` [Compound I-85, Cyclopentyl-(S)-1-((2S,4R)-2-((1R,2S)-1-(cyclopropylsulfonylcarbamoyl)-2-vinylcyclopropylcarbamoyl)-4-(7-methoxy-2-phenylquinolin-4-yloxy)pyrrolidin-1-yl)-4-(N-methylacrylamido)-1-oxobutan-2-ylcarbamate], the IC50 in assay [3] is 10 to 100 nM; in assay [4], 10 to 100 nM; in assay [5] it was 10 to 100 nM; in assay [6] (setting [7]) it was less than 10 nM. The compound further registered an IC90 in assay [4] of 10 to 100 nM.

As to `C=C[C@@H]1C[C@]1(NC(=O)[C@@H]1C[C@@H](Oc2nccc3ccccc23)CN1C(=O)[C@H](CCC(=O)C=C(C)C)NC(=O)OC(C)(C)C)C(=O)NS(=O)(=O)C1CC1` [Compound I-86, tert-butyl-(S)-1-((2S,4R)-2-((1R,2S)-1-(cyclopropylsulfonylcarbamoyl)-2-vinylcyclopropylcarbamoyl)-4-(isoquinolin-1-yloxy)pyrrolidin-1-yl)-7-methyl-1,5-dioxooct-6-en-2-ylcarbamate], the IC50 in assay [3] is 100 to 1000 nM; in assay [4], less than 10 nM; in assay [5], 100 to 1000 nM; in assay [6] (setting [7]), less than 10 nM. In assay [4], this compound yielded an IC90 of 10 to 100 nM.

As to `C=C[C@@H]1C[C@]1(NC(=O)[C@@H]1C[C@@H](Oc2nccc3ccc(-c4cccs4)cc23)CN1C(=O)[C@H](CCC(=O)C=C(C)C)NC(=O)OC(C)(C)C)C(=O)NS(=O)(=O)C1CC1` [Compound I-87, tert-butyl-(S)-1-((2S,4R)-2-((1R,2S)-1-(cyclopropylsulfonylcarbamoyl)-2-vinylcyclopropylcarbamoyl)-4-(7-(thiophen-2-yl)isoquinolin-1-yloxy)pyrrolidin-1-yl)-7-methyl-1,5-dioxooct-6-en-2-ylcarbamate], the IC50 in assay [3] was 10 to 100 nM; in assay [4], less than 10 nM; in assay [5] it was 100 to 1000 nM; in assay [6], less than 10 nM. This compound also returned an IC90 in assay [4] of 10 to 100 nM.
